Values quoted from earlier work as cited in patent US20100145053A1, “MODIFIED RELEASE CLOPIDOGREL FORMULATION” (CADILA HEALTHCARE LIMITED, priority 2006, published 2010).
Read-outs that look alike come from different tables or passages of the source.

Tests used:
[1] = in vivo
[2] = tested on: platelet aggregation to ADP; settings: 4 hours after 600-mg load
[3] = tested on: platelet aggregation in response to ADP; settings: 300-mg loading dose followed by 75 mg daily
[4] = tested on: ADP-induced platelet aggregation; settings: in vivo

Compound	Time of peak concentration of Clopidogrel and its active metabolite post dosing [1] [h]	Nonresponders (<10% reduction in platelet aggregation) ([2]; 5 μmol/L ADP) [%]	Semiresponders (10% to 29% reduction in platelet aggregation) ([2]; 5 μmol/L ADP) [%]	Nonresponders (<10% reduction in platelet aggregation) ([2]; 20 μmol/ADP) [%]	Semiresponders (10% to 29% reduction in platelet aggregation) ([2]; 20 μmol/ADP) [%]	Patients with Clopidogrel resistance (<10% reduction in aggregation in response to 5 μmol/L ADP) ([3]; at 2 hours)	Patients with Clopidogrel resistance (<10% reduction in aggregation in response to 5 μmol/L ADP) ([3]; at 24 hours)	Patients with Clopidogrel resistance (<10% reduction in aggregation in response to 5 μmol/L ADP) ([3]; at 5 days)	Patients with Clopidogrel resistance (<10% reduction in aggregation in response to 5 μmol/L ADP) ([3]; at 30 days)	Share of Clopidogrel available to undergo hepatic conversion to the active metabolite [1] [%]	Share of Clopidogrel inactivated by esterases in the blood after absorption [1] [%]	Inhibition of phosphodiesterase activity (phosphodiesterase)	Time for platelet aggregation and bleeding time to return to baseline after treatment is discontinued [4]
COC(=O)[C@H](c1ccccc1Cl)N1CCc2sccc2C1 [Clopidogrel bisulfate]	1 to 3												
COC(=O)[C@H](c1ccccc1Cl)N1CCc2sccc2C1 [Clopidogrel, Methyl (+)-(S)-alpha-(o-chlorophenyl)-6,7-dihydrothieno(3,2-c)pyridine-5(4H)-acetate]		5	9	11	26	63 % of patients	31 % of patients	31 % of patients	15 % of patients	15	85	does not inhibit	about 5 days
